Source: patent US20260139017A1, “COMPOSITIONS AND METHODS USING REELIN IN ALZHEIMER'S DISEASE” (The General Hospital Corporation, priority 2022, published 2026)

What was measured:
[1] = Bio-layer interferometry (BLI) of Fc-fusion CTR-RELN on heparin coated biosensor; assay type: binding; conditions: Fc-fusion (short, furin-cleaved) CTR
Protocol: We used Fc-fusion Reelin CTR peptides since peptides alone would be smaller than the limit of detection in this experimental design. To assess heparin—Fc-Reelin interaction, the octet system (bio-layer interferometry) was used to assess heparin-protein kinetics. 50 μg/mL biotinylated heparin was immobilized on the biosensor tip surface for 300 sec on preconditioned biosensors. This was followed by quenching with biocytin at 50 μg/ml, baseline buffer diluent for 120 sec, 200 nM of analyte (Fc-fusion proteins) for 120 sec, and disassociation in assay buffer for 120 sec.
The experimental data were fit with the 1:1 binding model and analyzed with global fitting using Octet Data Analysis software to calculate KD.

APOER2 = target: T1, APOER2 (Homo sapiens, UniProt Q14114); assay: ELISA cell-free binding of RELN variants to ApoEr2
T1 construct: purchased OnGene (so in the source)
T1 sequence (Q14114 33-963): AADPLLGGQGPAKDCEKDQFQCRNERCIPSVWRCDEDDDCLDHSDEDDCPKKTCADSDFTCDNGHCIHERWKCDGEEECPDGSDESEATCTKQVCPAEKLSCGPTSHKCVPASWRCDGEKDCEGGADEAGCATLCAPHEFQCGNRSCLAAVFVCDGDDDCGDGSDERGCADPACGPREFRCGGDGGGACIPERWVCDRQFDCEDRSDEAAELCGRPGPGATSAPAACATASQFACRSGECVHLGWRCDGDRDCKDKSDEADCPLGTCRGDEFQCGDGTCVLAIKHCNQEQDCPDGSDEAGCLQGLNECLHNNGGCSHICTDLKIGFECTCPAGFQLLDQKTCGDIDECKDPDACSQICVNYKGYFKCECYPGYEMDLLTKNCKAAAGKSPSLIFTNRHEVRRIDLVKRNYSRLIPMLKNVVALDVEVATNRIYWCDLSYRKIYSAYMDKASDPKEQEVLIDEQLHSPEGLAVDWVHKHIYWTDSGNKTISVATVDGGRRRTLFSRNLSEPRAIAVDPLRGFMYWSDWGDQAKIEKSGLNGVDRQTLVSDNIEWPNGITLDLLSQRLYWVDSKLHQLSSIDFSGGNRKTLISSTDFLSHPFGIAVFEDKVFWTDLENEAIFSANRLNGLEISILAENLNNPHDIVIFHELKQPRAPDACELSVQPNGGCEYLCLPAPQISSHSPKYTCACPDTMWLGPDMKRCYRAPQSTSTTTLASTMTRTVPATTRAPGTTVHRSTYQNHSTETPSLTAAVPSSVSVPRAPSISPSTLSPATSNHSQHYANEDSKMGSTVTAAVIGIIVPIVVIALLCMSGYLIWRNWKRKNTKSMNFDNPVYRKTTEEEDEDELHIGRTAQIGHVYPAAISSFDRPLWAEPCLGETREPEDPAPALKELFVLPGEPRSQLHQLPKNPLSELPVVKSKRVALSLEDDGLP
Protocol: Enzyme-linked immunosorbent assay (ELISA) was used to quantify changes in binding of RELN variants (media-derived full-length or CTR-RELN) to either VLDLr or ApoEr2 following an optimized version of a previously published protocol (6). Briefly, ELISA strips (DY008, R&D Systems) were coated with one ng/μL (100 μL/well) of VLDLr (8444-VL, R&D) or ApoEr2 (TP320903, OnGene) receptors diluted in 25 mM Tris HCl, 140 mM NaCl, […], two mM CaCl2), pH 7.4 (TBS-C buffer). After 18 h at four ° C. incubation, plates were blocked one h with three % BSA (22070008-6, Bioworld), 0.05% Tween-20 (Sigma Aldrich) TBS-C buffer. We assessed binding via incubation with 100 μL/well of serial dilutions of recombinant RELN protein (Ser1221-Gln2666, 8546-MR-050, R&D) or RELN variants in TBS-C buffer for one hour at room temperature. For detection, we used goat anti-mouse RELN primary antibody (LS-C793521-100, LS-Bio, 1:2,000, 100 μL/well) as primary antibody for one h at R.T. and (1:10,000; 100 μL/well, donkey anti-goat IgG H&L, HRP, ab6885, Abcam) as secondary antibody for 30 min. at R.T. Between each of the previous steps, plates were washed four times with TBS-C buffer (200 μL/well). Plates were washed three times prior to initiating the colorimetric reaction (DY008, R&D Systems). Stop solution (50 μL/well, DY008, R&D Systems) was added upon five min. incubation and the absorbance of the samples was measured at 450 nm using the Synergy 2 microplate reader (BioTek Instruments). Processing and analysis of the data was done using Gen5 1.11 software and GraphPad Prism, respectively.

With “RKQNYMMNFSRQHGLRRFYNRRRRSLRRYP [CTR-RELN H3447R]” the “interaction/affinity with heparin relative to WT” value ([1]; listed as H3447R) was ~2 fold, the “interaction/affinity with heparin relative to WT” value ([1]; listed as RELN H3447R) was “about 2 fold” and the “binding to APOER2” value (APOER2) was “unable to bind directly”.
